Measurements from patent US8148391B2 (Cephalon, Inc., priority 2006, dated 2012).
pIC50: −log10 of the molar value.

molecular target: T1, baculovirus-expressed ALK (Homo sapiens, UniProt Q9UM73); test: ALK Kinase Assay (ELISA-type, time-resolved fluorescence); assay type: biochemical; conditions: 1 μM ATP (Km level), 30 ng/ml ALK, 37° C., 15 minutes; read-out: ALK Activity (ALK kinase inhibition, IC50 class)
T1 construct: host or cells: baculovirus expression system
Experimental: (§1) Briefly, each 96-well plate was coated with 100 μL/well of 10 μg/mL substrate (phospholipase C-γ) in Tris-buffered saline (TBS). […] The reaction was initiated by adding enzyme (30 ng/ml ALK) and was allowed to proceed at 37° C. for 15 minutes. Detection of the phosphorylated product was performed by adding 100 μl/well of Eu-N1 labeled PT66 antibody (Perkin Elmer # AD0041).
(§2) Data analysis was performed using ActivityBase (IDBS, Guilford, UK). IC50 values were calculated by plotting percent inhibition versus log10 of the concentration of compound and fitting to the nonlinear regression sigmoidal dose-response (variable slope) equation in XLFit (IDBS, Guilford, UK).

T1 sequence (Q9UM73 19-1620): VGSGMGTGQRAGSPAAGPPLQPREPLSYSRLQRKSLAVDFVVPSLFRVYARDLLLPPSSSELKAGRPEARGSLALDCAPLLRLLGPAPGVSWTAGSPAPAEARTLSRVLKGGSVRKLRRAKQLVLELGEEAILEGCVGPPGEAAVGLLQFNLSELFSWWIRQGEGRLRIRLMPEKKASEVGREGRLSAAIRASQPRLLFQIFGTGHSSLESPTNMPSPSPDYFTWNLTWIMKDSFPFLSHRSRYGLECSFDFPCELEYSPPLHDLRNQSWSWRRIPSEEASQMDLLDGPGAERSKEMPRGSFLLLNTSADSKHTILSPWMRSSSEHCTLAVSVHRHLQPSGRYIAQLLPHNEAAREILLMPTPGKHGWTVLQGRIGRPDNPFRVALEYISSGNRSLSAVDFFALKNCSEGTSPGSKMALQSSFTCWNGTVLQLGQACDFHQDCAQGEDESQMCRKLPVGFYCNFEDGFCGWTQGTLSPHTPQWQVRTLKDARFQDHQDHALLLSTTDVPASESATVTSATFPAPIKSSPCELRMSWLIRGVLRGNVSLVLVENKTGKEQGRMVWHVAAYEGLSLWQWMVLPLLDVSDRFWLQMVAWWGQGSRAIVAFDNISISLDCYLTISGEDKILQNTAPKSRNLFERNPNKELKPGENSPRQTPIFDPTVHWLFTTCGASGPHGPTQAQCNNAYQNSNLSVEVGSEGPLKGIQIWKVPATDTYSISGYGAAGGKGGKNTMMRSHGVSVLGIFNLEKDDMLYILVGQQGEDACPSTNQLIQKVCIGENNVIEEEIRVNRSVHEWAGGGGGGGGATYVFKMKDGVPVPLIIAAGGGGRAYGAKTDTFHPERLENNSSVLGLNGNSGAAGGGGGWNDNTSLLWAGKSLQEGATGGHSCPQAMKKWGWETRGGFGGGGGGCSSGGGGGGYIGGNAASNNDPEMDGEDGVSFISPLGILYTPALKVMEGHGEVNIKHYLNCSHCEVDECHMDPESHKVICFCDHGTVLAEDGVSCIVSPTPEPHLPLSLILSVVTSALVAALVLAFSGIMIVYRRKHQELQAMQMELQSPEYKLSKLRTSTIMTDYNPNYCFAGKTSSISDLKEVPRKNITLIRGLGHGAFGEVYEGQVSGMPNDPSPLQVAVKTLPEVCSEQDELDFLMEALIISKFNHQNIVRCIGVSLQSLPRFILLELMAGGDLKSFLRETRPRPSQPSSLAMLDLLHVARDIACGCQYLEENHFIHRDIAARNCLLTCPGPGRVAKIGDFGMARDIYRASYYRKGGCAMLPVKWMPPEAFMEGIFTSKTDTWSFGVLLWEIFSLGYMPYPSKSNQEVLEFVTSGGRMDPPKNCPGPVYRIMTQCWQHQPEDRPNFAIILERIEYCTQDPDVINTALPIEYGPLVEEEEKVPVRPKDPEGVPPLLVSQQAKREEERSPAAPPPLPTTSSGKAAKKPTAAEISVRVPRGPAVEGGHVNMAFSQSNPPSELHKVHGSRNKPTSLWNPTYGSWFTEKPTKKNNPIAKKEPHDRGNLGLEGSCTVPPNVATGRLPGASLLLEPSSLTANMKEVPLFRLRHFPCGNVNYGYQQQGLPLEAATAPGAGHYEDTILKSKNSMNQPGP

Q: “1-[5-Chloro-2-(3-dimethylcarbamoylmethyl-8-methoxy-2,3,4,5-tetrahydro-1H-benzo[d]azepin-7-ylamino)-pyrimidin-4-ylamino]-cyclopentanecarboxylic acid methylamide [Example 1203]” was tested. Which pIC50 did it give?
A: 6.00 to 7.00

same assay, conditions: ALK kinase inhibition, 1 μM ATP; read-out: ALK Activity

Q: “2-[2-(8-Amino-4H,6H-3,5,10b-triaza-benzo[e]azulen-5-yl)-5-chloro-pyrimidin-4-ylamino]-3-fluoro-N-methyl-benzamide [Example 1467]” was tested. Which pIC50 did it give?
A: 5.00 to 6.00

Q: How did the pIC50 turn out when `CCN1C(=O)CCC(C)(C)c2ccc(Nc3ncc(Cl)c(Nc4c(F)cccc4C(=O)NC)n3)cc21` [Example 1576, 2-[5-Chloro-2-(1-ethyl-5,5-dimethyl-2-oxo-2,3,4,5-tetrahydro-1H-benzo[b]azepin-8-ylamino)-pyrimidin-4-ylamino]-3-fluoro-N-methyl-benzamide] was run?
A: > 7.00

Q: How did the pIC50 turn out when `CNC(=O)c1cccc(F)c1Nc1nc(Nc2ccc3c(c2)N(CCOC)C(=O)CCC3(C)C)ncc1Cl` [Example 1581, 2-{5-Chloro-2-[1-(2-methoxy-ethyl)-5,5-dimethyl-2-oxo-2,3,4,5-tetrahydro-1H-benzo[b]azepin-8-ylamino]-pyrimidin-4-ylamino}-3-fluoro-N-methyl-benzamide] was run?
A: > 7.00

Q: With `CNC(=O)c1cccc(F)c1Nc1nc(Nc2ccc3c(c2)N(C(C)C)C(=O)CCC3(C)C)ncc1Cl` [Example 1588, 2-[5-Chloro-2-(1-isopropyl-5,5-dimethyl-2-oxo-2,3,4,5-tetrahydro-1H-benzo[b]azepin-8-ylamino)-pyrimidin-4-ylamino]-3-fluoro-N-methyl-benzamide] as the compound, how does the pIC50 read?
A: > 7.00

Q: `CNC(=O)c1cccc(F)c1Nc1nc(Nc2ccc3c(c2)N(CC(C)C)C(=O)CCC3(C)C)ncc1Cl` [Example 1592, 2-[5-Chloro-2-(1-isobutyl-5,5-dimethyl-2-oxo-2,3,4,5-tetrahydro-1H-benzo[b]azepin-8-ylamino)-pyrimidin-4-ylamino]-3-fluoro-N-methyl-benzamide] was tested. Which pIC50 did it give?
A: > 7.00

Q: How did the pIC50 turn out when `CCN1CCCOc2cc(Nc3ncc(Cl)c(Nc4c(F)cccc4C(=O)NC)n3)ccc21` [Example 1692, 2-[5-Chloro-2-(9-ethyl-6,7,8,9-tetrahydro-5-oxa-9-aza-benzocyclohepten-3-ylamino)-pyrimidin-4-ylamino]-3-fluoro-N-methyl-benzamide] was run?
A: > 7.00

Q: With `CCN1CCCOc2ccc(Nc3ncc(Cl)c(Nc4c(F)cccc4C(=O)NC)n3)cc21` [Example 1697, 2-[5-Chloro-2-(9-ethyl-6,7,8,9-tetrahydro-5-oxa-9-aza-benzocyclohepten-2-ylamino)-pyrimidin-4-ylamino]-3-fluoro-N-methyl-benzamide] as the compound, how does the pIC50 read?
A: 6.00 to 7.00

Q: `CNC(=O)c1cccc(F)c1Nc1nc(Nc2ccc3c(c2)N(C(C)=O)CCCO3)ncc1Cl` [Example 1701, 2-[2-(9-Acetyl-6,7,8,9-tetrahydro-5-oxa-9-aza-benzocyclohepten-2-ylamino)-5-chloro-pyrimidin-4-ylamino]-3-fluoro-N-methyl-benzamide] was tested. Which pIC50 did it give?
A: 6.00 to 7.00

Q: How did the pIC50 turn out when `CNC(=O)c1cccc(F)c1Nc1nc(Nc2ccc3c(c2)OCCCN3C(=O)CN2CCCC2)ncc1Cl` [Example 1714, 2-{5-Chloro-2-[9-(2-pyrrolidin-1-yl-acetyl)-6,7,8,9-tetrahydro-5-oxa-9-aza-benzocyclohepten-3-ylamino]-pyrimidin-4-ylamino}-3-fluoro-N-methyl-benzamide] was run?
A: 6.00 to 7.00

Q: `CNC(=O)c1cccc(F)c1Nc1nc(Nc2ccc3c(c2)OCCCN3CCN2CCCC2)ncc1Cl` [Example 1718, 2-{5-Chloro-2-[9-(2-pyrrolidin-1-yl-ethyl)-6,7,8,9-tetrahydro-5-oxa-9-aza-benzocyclohepten-3-ylamino]-pyrimidin-4-ylamino}-3-fluoro-N-methyl-benzamide] was tested. Which pIC50 did it give?
A: > 7.00

Q: `CNC(=O)c1cccc(F)c1Nc1nc(Nc2ccc3c(c2)OCCCN3)ncc1Cl` [Example 1723, 2-[5-Chloro-2-(6,7,8,9-tetrahydro-5-oxa-9-aza-benzocyclohepten-3-ylamino)-pyrimidin-4-ylamino]-3-fluoro-N-methyl-benzamide] was tested. Which pIC50 did it give?
A: 6.00 to 7.00

Q: With `CNC(=O)c1cccc(F)c1Nc1nc(Nc2ccc3c(c2)OCCCN3C(C)=O)ncc1Cl` [Example 1724, 2-[2-(9-Acetyl-6,7,8,9-tetrahydro-5-oxa-9-aza-benzocyclohepten-3-ylamino)-5-chloro-pyrimidin-4-ylamino]-3-fluoro-N-methyl-benzamide] as the compound, how does the pIC50 read?
A: 6.00 to 7.00

Q: How did the pIC50 turn out when `CNC(=O)c1cccc(F)c1Nc1nc(Nc2ccc3c(c2)OCCCN3C(=O)COC)ncc1Cl` [Example 1726, 2-{5-Chloro-2-[9-(2-methoxy-acetyl)-6,7,8,9-tetrahydro-5-oxa-9-aza-benzocyclohepten-3-ylamino]-pyrimidin-4-ylamino}-3-fluoro-N-methyl-benzamide] was run?
A: 6.00 to 7.00

molecular target: T2, c-Met (cytoplasmic domain) (Homo sapiens, UniProt P08581); test: c-Met Kinase Assay (same methods as for ALK, with modifications); assay type: biochemical; conditions: 1 μM ATP (Km level), 10 ng/mL c-Met; read-out: cMet Activity (c-Met kinase inhibition, IC50 class)
T2 construct: 10 ng/mL c-Met (cytoplasmic domain, Invitrogen Corporation #PV3143); purchased Invitrogen Corporation PV3143
T2 sequence (P08581 956-1390 limits assumed): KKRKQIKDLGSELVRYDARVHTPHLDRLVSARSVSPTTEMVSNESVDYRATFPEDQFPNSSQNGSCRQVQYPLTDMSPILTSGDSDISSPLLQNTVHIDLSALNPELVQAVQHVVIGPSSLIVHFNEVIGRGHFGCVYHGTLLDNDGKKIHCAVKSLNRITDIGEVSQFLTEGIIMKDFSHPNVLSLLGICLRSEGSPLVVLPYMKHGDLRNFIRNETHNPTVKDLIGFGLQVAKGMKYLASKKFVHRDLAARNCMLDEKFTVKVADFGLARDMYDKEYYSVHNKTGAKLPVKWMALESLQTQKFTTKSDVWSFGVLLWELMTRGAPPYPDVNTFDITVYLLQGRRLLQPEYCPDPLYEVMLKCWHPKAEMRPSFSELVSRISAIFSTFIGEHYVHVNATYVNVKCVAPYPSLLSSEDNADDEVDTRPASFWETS
Experimental: as §1, §2
Reactions were initiated with 10 ng/mL c-Met (cytoplasmic domain, Invitrogen Corporation #PV3143).

Q: With “1-[5-Chloro-2-(3-dimethylcarbamoylmethyl-8-methoxy-2,3,4,5-tetrahydro-1H-benzo[d]azepin-7-ylamino)-pyrimidin-4-ylamino]-cyclopentanecarboxylic acid methylamide [Example 1203]” as the compound, how does the pIC50 read?
A: < 5.00

Q: How did the pIC50 turn out when `CNC(=O)CN1CCc2cc(Nc3ncc(Cl)c(Nc4ccc(N5CCOCC5)cc4OC)n3)c(OC)cc2CC1` [Example 1113, 2-{7-[5-Chloro-4-(2-methoxy-4-morpholin-4-yl-phenylamino)-pyrimidin-2-ylamino]-8-methoxy-1,2,4,5-tetrahydro-benzo[d]azepin-3-yl}-N-methyl-acetamide] was run?
A: < 5.00

Q: `COc1cc2c(cc1Nc1ncc(Cl)c(Nc3ccc(N4CCOCC4)cc3OC)n1)CCN(CCS(C)(=O)=O)CC2` [Example 1120, 5-Chloro-N*2*-[3-(2-methanesulfonyl-ethyl)-8-methoxy-2,3,4,5-tetrahydro-1H-benzo[d]azepin-7-yl]-N*4*-(2-methoxy-4-morpholin-4-yl-phenyl)-pyrimidine-2,4-diamine] was tested. Which pIC50 did it give?
A: < 5.00

Q: With `COc1cc2c(cc1Nc1ncc(Cl)c(Nc3ccccc3OC)n1)CCN(CC(=O)N(C)C)CC2` [Example 1130, 2-{7-[5-Chloro-4-(2-methoxy-phenylamino)-pyrimidin-2-ylamino]-8-methoxy-1,2,4,5-tetrahydro-benzo[d]azepin-3-yl}-N,N-dimethyl-acetamide] as the compound, how does the pIC50 read?
A: < 5.00

Q: With `COc1cc2c(cc1Nc1ncc(Cl)c(Nc3ccc(C(N)=O)cc3OC)n1)CCN(CC(=O)N(C)C)CC2` [Example 1146, 4-[5-Chloro-2-(3-dimethylcarbamoylmethyl-8-methoxy-2,3,4,5-tetrahydro-1H-benzo[d]azepin-7-ylamino)-pyrimidin-4-ylamino]-3-methoxy-benzamide] as the compound, how does the pIC50 read?
A: < 5.00

Q: With `COc1cc2c(cc1Nc1ncc(Cl)c(Nc3ccc(N4CCOCC4)cc3)n1)CCN(CC(=O)N(C)C)CC2` [Example 1150, 2-{7-[5-Chloro-4-(4-morpholin-4-yl-phenylamino)-pyrimidin-2-ylamino]-8-methoxy-1,2,4,5-tetrahydro-benzo[d]azepin-3-yl}-N,N-dimethyl-acetamide] as the compound, how does the pIC50 read?
A: < 5.00

Q: `COc1cc2c(cc1Nc1ncc(Cl)c(Nc3ccc(C#N)cc3OC)n1)CCN(CC(=O)N(C)C)CC2` [Example 1163, 2-{7-[5-Chloro-4-(4-cyano-2-methoxy-phenylamino)-pyrimidin-2-ylamino]-8-methoxy-1,2,4,5-tetrahydro-benzo[d]azepin-3-yl}-N,N-dimethyl-acetamide] was tested. Which pIC50 did it give?
A: < 5.00

Q: With `COCCOc1ccc(Nc2nc(Nc3cc4c(cc3OC)CCN(CC(=O)N(C)C)CC4)ncc2Cl)c(OC)c1` [Example 1169, 2-(7-{5-Chloro-4-[2-methoxy-4-(2-methoxy-ethoxy)-phenylamino]-pyrimidin-2-ylamino}-8-methoxy-1,2,4,5-tetrahydro-benzo[d]azepin-3-yl)-N,N-dimethyl-acetamide] as the compound, how does the pIC50 read?
A: < 5.00

same assay, conditions: 1 μM ATP (Km level); read-out: cMet Activity (c-Met Kinase Inhibition, IC50)

Q: With `COc1cc2c(cc1Nc1ncc(Cl)c(Nc3ccc(N4CCOCC4)cc3OC)n1)CCN(CC(F)F)CC2` [Example 761, 5-Chloro-N*2*-[3-(2,2-difluoro-ethyl)-8-methoxy-2,3,4,5-tetrahydro-1H-benzo[d]azepin-7-yl]-N*4*-(2-methoxy-4-morpholin-4-yl-phenyl)-pyrimidine-2,4-diamine] as the compound, how does the pIC50 read?
A: < 5.00

Q: How did the pIC50 turn out when `COc1ccc(Nc2nc(Nc3cc4c(cc3OC)CCN(CC(=O)N(C)C)CC4)ncc2Cl)c(OC)c1` [Example 812, 2-{7-[5-Chloro-4-(2,4-dimethoxy-phenylamino)-pyrimidin-2-ylamino]-8-methoxy-1,2,4,5-tetrahydro-benzo[d]azepin-3-yl}-N,N-dimethyl-acetamide] was run?
A: < 5.00

same assay, conditions: c-Met kinase inhibition, 1 μM ATP (Km level); read-out: cMet Activity

Q: With `COCCN1CCc2cc(Nc3ncc(Cl)c(Nc4ccc(N5CCOCC5)cc4OC)n3)c(OC)cc2CC1` [Example 113, 5-Chloro-N*2*-[8-methoxy-3-(2-methoxy-ethyl)-2,3,4,5-tetrahydro-1H-benzo[d]azepin-7-yl]-N*4*-(2-methoxy-4-morpholin-4-yl-phenyl)-pyrimidine-2,4-diamine] as the compound, how does the pIC50 read?
A: < 5.00

Q: With `CCN1C(=O)CCCc2c1ccc(Nc1ncc(Cl)c(Nc3ccc(N4CCOCC4)cc3OC)n1)c2OC` [Example 119, 7-[5-Chloro-4-(2-methoxy-4-morpholin-4-yl-phenylamino)-pyrimidin-2-ylamino]-1-ethyl-6-methoxy-1,3,4,5-tetrahydro-benzo[b]azepin-2-one] as the compound, how does the pIC50 read?
A: < 5.00

same assay, conditions: c-Met kinase inhibition, 1 μM ATP; read-out: cMet Activity

Q: With “2-[2-(8-Amino-4H,6H-3,5,10b-triaza-benzo[e]azulen-5-yl)-5-chloro-pyrimidin-4-ylamino]-3-fluoro-N-methyl-benzamide [Example 1467]” as the compound, how does the pIC50 read?
A: 5.00 to 6.00

same assay, conditions: cMet Activity, c-Met kinase inhibition, 1 μM ATP (Km level)

Q: How did the pIC50 turn out when `COc1cc2c(cc1Nc1ncc(Cl)c(Nc3ccc(N4CCOCC4)cc3OC)n1)CCN(CC(=O)N(C)C)CC2` [Example 261, 2-{7-[5-Chloro-4-(2-methoxy-4-morpholin-4-yl-phenylamino)-pyrimidin-2-ylamino]-8-methoxy-1,2,4,5-tetrahydro-benzo[d]azepin-3-yl}-N,N-dimethyl-acetamide] was run?
A: < 5.00
